Assay results taken from US10487129B2, “Stabilized insulinotropic peptides and methods of use” (Dana-Farber Cancer Institute, Inc., priority 2010, dated 2019).
Positions of bridges follow the written chain, without caps; N, C: chain ends. Non-standard residues stand in square brackets, D forms with d. Residues, ends and D or L forms follow the SMILES beside them. No end group written: not given here. S5 = C=CCCC[C@](C)(N)C(=O)O; Nle = CCCC[C@H](N)C(=O)O

Legend:
pepsin = pepsin (Sus scrofa, UniProt P00791); test: in vitro; format: in vitro ADME; conditions: pH 2
Method: In vitro proteolytic degradation of structured peptides was measured by LC/MS (Agilent 1200) using the following parameters: 20 μL injection, 0.6 mL flow rate, 15 min run time consisting of a gradient of water (0.1% formic acid) to 20-80% acetonitrile (0.075% formic acid) over 10 min, 4 min wash to revert to starting gradient conditions, and 0.5 min post-time. The DAD signal was set to 280 nm with an 8 nm bandwidth and MSD set to scan mode with one channel at (M+2H)/2, +1 mass units and the other at (M+3H)/3, +1 mass units. Integration of each MSD signal yielded areas under the curve of >10^8 counts. Reaction samples were composed of 5 μL peptide in DMSO (1 mM stock) and 195 μL of buffer consisting of 50 mM phosphate buffer pH 7.4 containing 2 mM CaCl2. Upon injection of the 0 hr time point sample, 2 μL of 50 ng/μL chymotrypsin (Sigma) was added and the amount of intact peptide quantitated by serial injection over time. An internal control of acetylated tryptophan carboxamide at a concentration of 100 μM was used to normalize each MSD data point. A plot of MSD area versus time yielded an exponential decay curve and half-lives were determined by nonlinear regression analysis using Prism software (GraphPad). The assay was also performed using trypsin and pepsin in their appropriate buffer conditions.

[1] = Circular dichroism thermal unfolding, 5-83° C.; format: physicochemical
chymotrypsin [2] = biological target: T1, chymotrypsin (Bos taurus, UniProt P00766); format: in vitro ADME; set-up: purchased Sigma; conditions: pH 7
Excerpt: A major limitation of peptides as therapeutics is their susceptibility to rapid proteolytic degradation. […] One of the potential benefits of a covalent crosslinking strategy to enforce peptide α-helicity is shielding of the vulnerable amide bonds from proteolysis. Because proteases require that peptides adopt an extended conformation to hydrolyze amide bonds, the structural constraint afforded by the hydrocarbon staple can render crosslinked peptides protease-resistant.

chymotrypsin [3] = biological target: T1, chymotrypsin; test: Chymotrypsin proteolysis of gp41-derived HIV-1 fusion inhibitor peptides
Method: In vitro proteolytic degradation of structured peptides was measured by LC/MS (Agilent 1200) using the following parameters: 20 μL injection, 0.6 mL flow rate, 15 min run time consisting of a gradient of water (0.1% formic acid) to 20-80% acetonitrile (0.075% formic acid) over 10 min, 4 min wash to revert to starting gradient conditions, and 0.5 min post-time. The DAD signal was set to 280 nm with an 8 nm bandwidth and MSD set to scan mode with one channel at (M+2H)/2, +1 mass units and the other at (M+3H)/3, +1 mass units. […] Reaction samples were composed of 5 μL peptide in DMSO (1 mM stock) and 195 μL of buffer consisting of 50 mM phosphate buffer pH 7.4 containing 2 mM CaCl2. Upon injection of the 0 hr time point sample, 2 μL of 50 ng/μL chymotrypsin (Sigma) was added and the amount of intact peptide quantitated by serial injection over time. An internal control of acetylated tryptophan carboxamide at a concentration of 100 μM was used to normalize each MSD data point. A plot of MSD area versus time yielded an exponential decay curve and half-lives were determined by nonlinear regression analysis using Prism software (GraphPad). The assay was also performed using trypsin and pepsin in their appropriate buffer conditions.

[4] = Circular dichroism melting of gp41 peptides; format: physicochemical; conditions: circular dichroism melting profile
Method: The alpha-helicity of stapled modified polypeptides was compared to their unmodified counterparts by circular dichroism. CD spectra were obtained on an Aviv spectropolarimeter at 20° C. using the following standard measurement parameters: wavelength, 190-260 nm; step resolution, 0.5 nm; speed, 20 nm/sec; accumulations, 10; response, 1 sec; bandwidth, 1 nm; path length, 0.1 cm. The alpha-helical content of each peptide was calculated by dividing the mean residue ellipticity [θ]222obs by the reported [θ]222obs for a model helical peptide (Forood, B., E. J. Feliciano, and K. P. Nambiar, PNAS, 1993. 90(3): p. 838-842; J. Martin Scholtz, Biopolymers, 1991. 31(13): p. 1463-1470; Lawless, M. K., et al., Biochemistry, 1996. 35(42): p. 13697-13708) or using, for example, the Aviv machine using CDNN software developed by Brohm in order to deduce five different secondary structure fractions (helix, parallel and antiparallel beta-sheet, beta-turn and random coil). Protein Engineering, 1992. 5(3); p. 191-195. Thermal stability is assessed by acquiring circular dichroism spectra across a broad temperature range and determining the melting temperatures for each constrained peptide.

[5] = test system: isolated pancreatic islets; test: Glucose-stimulated insulin release (GSIS) from isolated pancreatic islets; format: cell-based, mouse; conditions: 10 nM peptide, 1.67 mM to 16.7 mM glucose, 1 hour at 37° C., insulin ELISA
Method: Stock solutions of SAH-Ex and SAH-GLP peptides were generated by dissolving the lyophilized powders in deionized water at 100 μM. The following treatment solutions were made for batch GSIS assays: 1.67 mM glucose, 16.7 mM glucose, 1.67 mM glucose+10 nM peptide, 16.7 mM glucose+10 nM peptide all in 1×KRB buffer, 2 mM CaCl2, 0.05% BSA. Islets isolated from wild-type mouse pancreas were washed 3 times with KRB buffer and 5 islets per experimental tube were incubated in KRB buffer containing 1.67 mM glucose for 30 min at 37° C. Islets were then pelleted and the buffer replaced with the treatment solutions listed above. Each experimental condition was examined in replicates of n=8. After 1 hour incubation at 37° C., islets were pelleted and the supernatants collected for glucose stimulated insulin release measurement. The pellets are solubilized to assess intracellular insulin content to normalize for cell number. Insulin was measured by ELISA using mouse insulin as a standard (Insulin ELISA Kit, cat. 80-INSMS-E01, ALPCO). For the insulin ELISA plots, there is a small increase in the amount of insulin released in response to escalation of the glucose dose from 1.67 mM to 16.7 mM.

Sequence of pepsin (P00791 60-385): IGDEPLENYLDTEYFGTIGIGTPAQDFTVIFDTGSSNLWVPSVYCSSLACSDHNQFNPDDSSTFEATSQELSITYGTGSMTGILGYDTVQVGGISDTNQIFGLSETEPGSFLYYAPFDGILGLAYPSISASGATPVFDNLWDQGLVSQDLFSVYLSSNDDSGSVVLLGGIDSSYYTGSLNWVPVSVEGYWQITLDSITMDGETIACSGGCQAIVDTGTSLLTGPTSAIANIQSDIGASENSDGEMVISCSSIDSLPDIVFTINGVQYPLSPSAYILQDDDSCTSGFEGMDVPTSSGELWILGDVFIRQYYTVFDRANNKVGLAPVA

CC[C@H](C)[C@H](NC(=O)[C@H](Cc1ccccc1)NC(=O)[C@H](CC(C)C)NC(=O)[C@H](CCCNC(=N)N)NC(=O)[C@@H](NC(=O)[C@H](C)NC(=O)[C@H](CCC(=O)O)NC(=O)[C@H](CCC(=O)O)NC(=O)[C@H](CCC(=O)O)NC(=O)[C@]1(C)CCCC=CCCC[C@](C)(NC(=O)[C@H](CC(=O)O)NC(=O)[C@H](CO)NC(=O)[C@@H](NC(=O)[C@H](Cc2ccccc2)NC(=O)[C@@H](NC(=O)CNC(=O)[C@H](CCC(=O)O)NC(=O)CNC(=O)[C@@H](N)Cc2c[nH]cn2)[C@@H](C)O)[C@@H](C)O)C(=O)N[C@@H](CO)C(=O)N[C@@H](CCCCN)C(=O)N[C@@H](CCC(N)=O)C(=O)N1)C(C)C)C(=O)N[C@@]1(C)CCCC=CCCC[C@@](C)(C(=O)NCC(=O)NCC(=O)N2CCC[C@H]2C(=O)N[C@@H](CO)C(=O)N[C@@H](CO)C(=O)NCC(=O)N[C@@H](C)C(=O)N2CCC[C@H]2C(=O)N2CCC[C@H]2C(=O)N2CCC[C@H]2C(=O)N[C@@H](CO)C(N)=O)NC(=O)[C@H](CCCCN)NC(=O)[C@H](CC(C)C)NC(=O)[C@H](Cc2c[nH]c3ccccc23)NC1=O (single isomer, unassigned) [SAH-Ex(A, B)]
enhancement in pepsin resistance compared to the template peptide (pepsin): 13 fold
half-life at 25 μM (pepsin): 172 min
slope of temperature melt line [1]: flatter sloped line
enhancement in chymotrypsin resistance compared to the singly stapled peptides (chymotrypsin [2]): up to 4 fold
enhancement in chymotrypsin resistance compared to the template peptide (chymotrypsin [2]): 8 fold

CCCC[C@H](NC(=O)[C@H](Cc1c[nH]c2ccccc12)NC(=O)[C@@H](NC(=O)[C@@H](N)CCCC)[C@@H](C)O)C(=O)N[C@@H](CCC(=O)O)C(=O)N[C@@H](Cc1c[nH]c2ccccc12)C(=O)N[C@@H](CC(=O)O)C(=O)N[C@@H](CCCNC(=N)N)C(=O)N[C@@H](CCC(=O)O)C(=O)N[C@H](C(=O)N[C@@H](CC(N)=O)C(=O)N[C@@H](CC(N)=O)C(=O)N[C@@H](Cc1ccc(O)cc1)C(=O)N[C@H](C(=O)N[C@@H](CO)C(=O)N[C@@H](CC(C)C)C(=O)N[C@H](C(=O)N[C@@H](Cc1c[nH]cn1)C(=O)N[C@@H](CO)C(=O)N[C@@H](CC(C)C)C(=O)N[C@H](C(=O)N[C@@H](CCC(=O)O)C(=O)N[C@@H](CCC(=O)O)C(=O)N[C@@H](CO)C(=O)N[C@@H](CCC(N)=O)C(=O)N[C@@H](CC(N)=O)C(=O)N[C@@H](CCC(N)=O)C(=O)N[C@@]1(C)CCCC=CCCC[C@@](C)(C(=O)N[C@@H](CCC(N)=O)C(=O)N[C@@H](CCC(=O)O)C(=O)N[C@@H](CC(C)C)C(=O)N[C@@H](CC(C)C)C(=O)N[C@@H](CCC(=O)O)C(N)=O)NC(=O)[C@H](CC(N)=O)NC(=O)[C@H](CCCCN)NC(=O)[C@H](CCC(=O)O)NC1=O)[C@@H](C)CC)[C@@H](C)CC)[C@@H](C)O)[C@@H](C)CC [SAH-gp41(626-662)(B)] (H-[Nle]TW[Nle]EWDREINNYTSLIHSLIEESQNQ[S5]EKN[S5]QELLE-NH2; staple 28-32; N-terminus assumed)
half-life (chymotrypsin [3]): 77 min

C=CCCC[C@](C)(NC(=O)[C@H](CC(N)=O)NC(=O)[C@H](CCCCN)NC(=O)[C@H](CCC(=O)O)NC(=O)[C@](C)(CCCC=C)NC(=O)[C@H](CCC(N)=O)NC(=O)[C@H](CC(N)=O)NC(=O)[C@H](CCC(N)=O)NC(=O)[C@H](CO)NC(=O)[C@H](CCC(=O)O)NC(=O)[C@H](CCC(=O)O)NC(=O)[C@@H](NC(=O)[C@H](CC(C)C)NC(=O)[C@H](CO)NC(=O)[C@H](Cc1c[nH]cn1)NC(=O)[C@@H](NC(=O)[C@H](CC(C)C)NC(=O)[C@H](CO)NC(=O)[C@@H](NC(=O)[C@H](Cc1ccc(O)cc1)NC(=O)[C@H](CC(N)=O)NC(=O)[C@H](CC(N)=O)NC(=O)[C@@H](NC(=O)[C@H](CCC(=O)O)NC(=O)[C@](C)(CCCC=C)NC(=O)[C@H](CC(=O)O)NC(=O)[C@H](Cc1c[nH]c2ccccc12)NC(=O)[C@H](CCC(=O)O)NC(=O)[C@](C)(CCCC=C)NC(=O)[C@H](Cc1c[nH]c2ccccc12)NC(=O)[C@@H](NC(=O)[C@@H](N)CCCC)[C@@H](C)O)[C@@H](C)CC)[C@@H](C)O)[C@@H](C)CC)[C@@H](C)CC)C(=O)N[C@@H](CCC(N)=O)C(=O)N[C@@H](CCC(=O)O)C(=O)N[C@@H](CC(C)C)C(=O)N[C@@H](CC(C)C)C(=O)N[C@@H](CCC(=O)O)C(N)=O [UAH-gp41(626-662)(A,B)] (H-[Nle]TW[S5]EWD[S5]EINNYTSLIHSLIEESQNQ[S5]EKN[S5]QELLE-NH2; N-terminus assumed)
Tm [4]: 27 °C
half-life (chymotrypsin [3]): 36 min
protection from chymotrypsin proteolysis, result in words (chymotrypsin [3]): does not confer significant protection

GLP1: Glucagon-like Peptide-1, insulin secretagogue (HAEGTFTSDVSSYLEGQAAKEFIAWLVKGR; ends and bridges not checked; UniProt P01275 98-127, looked up)
glucose-stimulated insulin release (GSIS) [5]: substantial increase in GSIS
